Data as given in PubChem BioAssay AID256 (DTP/NCI, 2004).
“And” between values parts separate entries of the source, which are not always exact repeats. Identical values can stand only once. Toxic doses and inconclusive results are not listed. The calls were made as follows: active = survival T/C of 150% or more; inactive = T/C below 125% in these data.

Test system: CD2F1 mice, L1210 leukemia ip, survival T/C
Assay: NCI In Vivo Anticancer Drug Screen. Data for tumor model L1210 Leukemia (intraperitoneal) in CD2F1 (CDF1) mice
Details: endpoint: mean survival time, higher = longer survival
Summary of the method: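 Activity against a transplanted murine tumor was judged by comparing the compound group with a vehicle group. The outcome in the treated animals was divided by that in the controls.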

[1] = dose: 100.0 mg/kg/injection, schedule: Q01DX001 (ip), vehicle: saline with Tween-80
[2] = dose: 200.0 mg/kg/injection, schedule: Q01DX001 (ip), vehicle: saline with Tween-80
[3] = dose: 400.0 mg/kg/injection, schedule: Q01DX001 (ip), vehicle: saline with Tween-80
[4] = dose: 50.0 mg/kg/injection, schedule: Q01DX009 (ip), vehicle: saline
[5] = dose: 100.0 mg/kg/injection, schedule: Q04DX003 (ip), vehicle: saline with Tween-80
[6] = dose: 200.0 mg/kg/injection, schedule: Q04DX003 (ip), vehicle: saline with Tween-80
[7] = dose: 400.0 mg/kg/injection, schedule: Q04DX003 (ip), vehicle: saline with Tween-80
[8] = dose: 75.0 mg/kg/injection, schedule: Q01DX001 (ip), vehicle: other
[9] = dose: 150.0 mg/kg/injection, schedule: Q01DX001 (ip), vehicle: other
[10] = dose: 300.0 mg/kg/injection, schedule: Q01DX001 (ip), vehicle: other
[11] = dose: 100.0 mg/kg/injection, schedule: Q01DX009 (ip), vehicle: saline with Tween-80
[12] = dose: 200.0 mg/kg/injection, schedule: Q01DX009 (ip), vehicle: saline with Tween-80
[13] = dose: 400.0 mg/kg/injection, schedule: Q01DX009 (ip), vehicle: saline with Tween-80
[14] = dose: 6.25 mg/kg/injection, schedule: Q04DX003 (ip), vehicle: saline with Tween-80
[15] = dose: 12.5 mg/kg/injection, schedule: Q04DX003 (ip), vehicle: saline with Tween-80
[16] = dose: 25.0 mg/kg/injection, schedule: Q04DX003 (ip), vehicle: saline with Tween-80

Measured: T/C

C/C=C/C(O)C(O)/C=C/C (stereo not given)
inactive: [1] 94 % of control | [2] 97 % of control | [3] 97 % of control

NC(CSC(c1ccccc1)(c1ccccc1)c1ccc(-c2ccccc2)cc1)C(=O)O (stereo not given)
inactive: [4] 111 % of control | dose: 100.0 mg/kg/injection, schedule: Q01DX009 (ip), vehicle: saline 108 % of control | dose: 200.0 mg/kg/injection, schedule: Q01DX009 (ip), vehicle: saline 105 % of control | dose: 400.0 mg/kg/injection, schedule: Q01DX009 (ip), vehicle: saline 100 % of control

CC1CC(C)(C)N=C(CC(=O)N2Cc3cc4ccccc4nc3C2)O1 (stereo not given)
inactive: [1] 96 % of control | [2] 104 % of control | [3] 96 % of control

Cc1nc(C#N)c(N)nc1Cl
inactive: dose: 100.0 mg/kg/injection, schedule: Q04DX002 (ip), vehicle: Klucel (hydroxypropylcellulose) (HPC) 109 % of control | dose: 200.0 mg/kg/injection, schedule: Q04DX002 (ip), vehicle: Klucel (hydroxypropylcellulose) (HPC) 91 % of control | dose: 400.0 mg/kg/injection, schedule: Q04DX002 (ip), vehicle: Klucel (hydroxypropylcellulose) (HPC) 109 % of control

CN(C)C(=S)NCc1ccccc1
inactive: [5] 105 % of control | [6] 109 % of control | [7] 87 % of control

c1ccc(C2CO2)cc1 (stereo not given)
inactive: dose: 150.0 mg/kg/injection, schedule: Q04DX003 (ip), vehicle: Klucel (hydroxypropylcellulose) (HPC) 102 % of control | dose: 225.0 mg/kg/injection, schedule: Q04DX003 (ip), vehicle: Klucel (hydroxypropylcellulose) (HPC) 102 % of control

Cc1cccc(C)c1N
inactive: [1] 96 % of control | [2] 94 % of control | [3] 91 % of control

CN(C)N=Nc1c(F)cccc1F
inactive: dose: 6.25 mg/kg/injection, schedule: Q01DX009 (ip), vehicle: other 98 % of control | dose: 12.5 mg/kg/injection, schedule: Q01DX009 (ip), vehicle: other 113 % of control and 93 % of control | dose: 12.5 mg/kg/injection, schedule: Q01DX009 (ip), vehicle: saline with Tween-80 98 % of control | dose: 25.0 mg/kg/injection, schedule: Q01DX009 (ip), vehicle: other 117 % of control and 100 % of control | dose: 25.0 mg/kg/injection, schedule: Q01DX009 (ip), vehicle: saline with Tween-80 106 % of control | dose: 50.0 mg/kg/injection, schedule: Q01DX009 (ip), vehicle: other 91 % of control | dose: 50.0 mg/kg/injection, schedule: Q01DX009 (ip), vehicle: saline with Tween-80 120 % of control | dose: 100.0 mg/kg/injection, schedule: Q01DX009 (ip), vehicle: other 102 % of control and 104 % of control

COC(=O)Nc1ccc(C)cc1[N+](=O)[O-]
inactive: dose: 100.0 mg/kg/injection, schedule: Q04DX003 (ip), vehicle: other 106 % of control | dose: 200.0 mg/kg/injection, schedule: Q04DX003 (ip), vehicle: other 106 % of control | dose: 400.0 mg/kg/injection, schedule: Q04DX003 (ip), vehicle: other 109 % of control

CCC(C)(C)OC(=O)Nc1ccc(C)c(NC(=O)OC(C)(C)CC)c1
inactive: [8] 86 % of control | [9] 86 % of control | [10] 90 % of control

O=[N+]([O-])c1c(Cl)c(Cl)cc(Cl)c1Cl
inactive: [11] 94 % of control | [5] 93 % of control | [12] 96 % of control | [6] 97 % of control | [13] 98 % of control | [7] 98 % of control

O=C(Nc1ccc(Cl)c(C(F)(F)F)c1)Nc1c(Oc2ccc(Cl)c(Cl)c2)ccc(Cl)c1S(=O)(=O)O
inactive: dose: 12.5 mg/kg/injection, schedule: Q01DX009 (ip), vehicle: saline 100 % of control | dose: 25.0 mg/kg/injection, schedule: Q01DX009 (ip), vehicle: saline 98 % of control | [4] 100 % of control

CSc1cc(N)nc2c1nnn2C1OC(CO)C(O)C1O (stereo not given)
inactive: dose: 12.5 mg/kg/injection, schedule: Q01DX005 (ip), vehicle: water 94 % of control | dose: 25.0 mg/kg/injection, schedule: Q01DX005 (ip), vehicle: water 100 % of control | dose: 50.0 mg/kg/injection, schedule: Q01DX005 (ip), vehicle: water 95 % of control | dose: 100.0 mg/kg/injection, schedule: Q01DX005 (ip), vehicle: water 90 % of control | dose: 200.0 mg/kg/injection, schedule: Q01DX005 (ip), vehicle: water 87 % of control

Nc1nc(N)c(CCCc2ccccc2)c(N)n1
inactive: dose: 2.0 mg/kg/injection, schedule: Q04DX002 (ip), vehicle: Klucel (hydroxypropylcellulose) (HPC) 104 % of control | dose: 4.0 mg/kg/injection, schedule: Q04DX002 (ip), vehicle: Klucel (hydroxypropylcellulose) (HPC) 101 % of control | dose: 8.0 mg/kg/injection, schedule: Q04DX002 (ip), vehicle: Klucel (hydroxypropylcellulose) (HPC) 109 % of control | dose: 16.0 mg/kg/injection, schedule: Q04DX002 (ip), vehicle: Klucel (hydroxypropylcellulose) (HPC) 98 % of control | dose: 32.0 mg/kg/injection, schedule: Q04DX002 (ip), vehicle: Klucel (hydroxypropylcellulose) (HPC) 98 % of control | dose: 64.0 mg/kg/injection, schedule: Q04DX002 (ip), vehicle: Klucel (hydroxypropylcellulose) (HPC) 98 % of control

C=CCCCCCCCCCCC(=O)OC
inactive: [11] 106 % of control | [5] 93 % of control | [12] 106 % of control | [6] 94 % of control | [13] 101 % of control

Cc1cccc(Cl)c1NC1=NCCO1
inactive: [14] 100 % of control | [15] 100 % of control | [16] 111 % of control

CC(=O)OC(c1ccccc1)C(OC(C)=O)c1ccccc1 (stereo not given)
inactive: [8] 104 % of control | [9] 102 % of control | [10] 88 % of control

Cc1nc2c(c(-c3ccccc3)n1)Cc1c(ccc3ccccc13)O2
inactive: dose: 100.0 mg/kg/injection, schedule: Q01DX001 (ip), vehicle: saline 92 % of control | dose: 200.0 mg/kg/injection, schedule: Q01DX001 (ip), vehicle: saline 98 % of control | dose: 400.0 mg/kg/injection, schedule: Q01DX001 (ip), vehicle: saline 103 % of control

CCN(CC)C(=O)C(C)C1CCC2C3CC=C4CC(OC(=O)c5cc([N+](=O)[O-])cc([N+](=O)[O-])c5)CCC4(C)C3CCC12C (stereo not given)
inactive: [1] 94 % of control | [2] 94 % of control | [3] 98 % of control

CCCCNC(C)(C)C(SSC(c1cccs1)C(C)(C)NCCCC)c1cccs1 (stereo not given)
inactive: [16] 97 % of control | dose: 50.0 mg/kg/injection, schedule: Q04DX003 (ip), vehicle: saline with Tween-80 101 % of control | [5] 98 % of control

Nc1nccc(N2CCCCC2)n1
inactive: [14] 100 % of control | [15] 100 % of control | [16] 97 % of control

CCOC(=O)Nc1cc(N)c2n[nH]nc2n1
inactive: dose: 100.0 mg/kg/injection, schedule: Q01DX001 (ip), vehicle: carboxymethylcellulose (CMC) 100 % of control | dose: 200.0 mg/kg/injection, schedule: Q01DX001 (ip), vehicle: carboxymethylcellulose (CMC) 98 % of control | dose: 400.0 mg/kg/injection, schedule: Q01DX001 (ip), vehicle: carboxymethylcellulose (CMC) 102 % of control

C/C(=C\C(=O)c1ccccc1)OB(F)F
inactive: [11] 98 % of control and 100 % of control | [12] 110 % of control and 100 % of control | [13] 100 % of control

CCCCCCCCCCCCCCCC1CCCC(C)N1 (stereo not given)
inactive: dose: 50.0 mg/kg/injection, schedule: Q04DX002 (ip), vehicle: saline with Tween-80 90 % of control and 105 % of control | dose: 100.0 mg/kg/injection, schedule: Q04DX002 (ip), vehicle: saline with Tween-80 87 % of control | dose: 200.0 mg/kg/injection, schedule: Q04DX002 (ip), vehicle: saline with Tween-80 87 % of control

Oc1ccc(C(c2ccccc2)(c2ccccc2)c2ccccc2)cc1
inactive: [11] 94 % of control | [12] 89 % of control | [13] 91 % of control

C[n+]1cccc(/C=C/C(=O)Nc2ccccc2)c1
inactive: [5] 99 % of control | [6] 87 % of control

C#CCNc1ncnc2c1ncn2C1OC(CO)C(O)C1O (stereo not given)
inactive: dose: 12.5 mg/kg/injection, schedule: Q01DX005 (ip), vehicle: other 96 % of control | dose: 25.0 mg/kg/injection, schedule: Q01DX005 (ip), vehicle: other 97 % of control | dose: 50.0 mg/kg/injection, schedule: Q01DX005 (ip), vehicle: other 111 % of control | dose: 100.0 mg/kg/injection, schedule: Q01DX005 (ip), vehicle: other 114 % of control | dose: 200.0 mg/kg/injection, schedule: Q01DX005 (ip), vehicle: other 111 % of control

CC([NH-])C([NH-])O.[I][Pt+2][I] (stereo not given)
inactive: [14] 97 % of control | [15] 115 % of control | [16] 121 % of control
